Values quoted from earlier work, collected in patent publication US10543172B2, “Econazole composition and methods of treatment therewith” (PARAGON NORDIC AB, priority 2010, dated 2020).

Tested on: dermatophytes and yeasts
Conditions: Liao et al., Yao Xue Xue Bao 28(1):22-7 (1993)

## Clc1ccc(CO[C@@H](Cn2ccnc2)c2ccc(Cl)cc2Cl)cc1 [(R)-(−)-econazole]
  antifungal activity of stereoisomer: greater antifungal activity
